Data: patent publication US20040122089A1, “Novel eicosanoid analgesics” (priority 2001, published 2004)
Where two headings read alike, the source gives them in different places.

Columns and labels:
[1] = target: T1, fatty acid amide hydrolase (FAAH) (Mus musculus, UniProt O08914); test: [14C]AEA hydrolysis by N18TG2 cell membranes; type: biochemical
T1 construct: membranes prepared from N18TG2 cells; endogenous in cells; host or cells: N18TG2 cell membranes
T1 sequence (O08914 1-579): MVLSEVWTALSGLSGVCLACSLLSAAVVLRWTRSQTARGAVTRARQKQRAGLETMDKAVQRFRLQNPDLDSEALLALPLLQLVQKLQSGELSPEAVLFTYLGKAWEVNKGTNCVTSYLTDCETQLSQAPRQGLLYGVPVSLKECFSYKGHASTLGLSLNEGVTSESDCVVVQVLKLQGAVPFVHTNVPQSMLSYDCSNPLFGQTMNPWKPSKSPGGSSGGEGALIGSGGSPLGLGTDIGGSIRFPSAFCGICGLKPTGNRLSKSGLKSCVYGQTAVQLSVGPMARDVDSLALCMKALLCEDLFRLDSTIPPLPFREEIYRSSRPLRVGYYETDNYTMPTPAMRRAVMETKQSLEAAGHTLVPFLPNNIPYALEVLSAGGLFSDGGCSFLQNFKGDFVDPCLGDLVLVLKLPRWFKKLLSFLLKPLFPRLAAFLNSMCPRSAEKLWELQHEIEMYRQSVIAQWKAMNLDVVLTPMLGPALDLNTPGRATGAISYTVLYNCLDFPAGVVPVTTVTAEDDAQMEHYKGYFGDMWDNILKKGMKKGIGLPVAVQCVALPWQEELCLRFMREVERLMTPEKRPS
Description: (§1) The effect of compounds on the enzymatic hydrolysis of [^14C] AEA (6 μM) was studied by using membranes prepared from N18TG2 cells incubated with increasing concentrations of compounds in 50 mM Tris-HCL, pH 9, for 30 min at 37° C. [^14C] Ethanolamine produced from [^14C] AEA hydrolysis was quantified by scintillation spectroscopy and used to measure fatty acid amide hydrolase (FAAH) activity. The effect of compounds on the uptake of AEA by RBL-2H3 cells was studied with a procedure analogous to that described in Melck, ibid., and modified as described in Hilliard et al., J. Neurochem. 69:631-638 (1997). Cells were incubated with [^14C] AEA (4μM) for 5 min. at 37° C., in the presence or absence of varying concentrations of the inhibitors. Residual [1^4C] AEA in the incubation media after extraction with CHCl3/CH30H (2:1 by volume) was used as a measure of the AEA that was taken up by cells.
Accordingly, when the compounds were tested for their capability of inhibiting [^14C] […] This is in agreement with previous observations that Me-AEA, DMH-derivatives of AEA and arvanil are poor substrates for FAAH. The two exceptions were O-1856 and O-1895, which did inhibit the hydrolysis of [^14C] AEA, although not very potently.

human VR1 receptor [2] = target: T2, human VR1 receptor (Homo sapiens, UniProt Q8NER1); test: Ca2+ influx (Fluo-3) in HEK-hVR1 cells (Example 2); type: cell-based; parameters: expressed in transfected cells; host or cells: HEK 293 cells (HEK-hVR1)
Description: N18TG2 and RBL-2H3 cells were grown as described in Melck et al, Bioch. Biophys. Res. Commun. 262:275-284 (1999). Ionomycin was purchased from Sigma. DMH-arvanil, and six substituted dimethylpentyl (DMP) derivatives of arvanil and met-AEA were synthesized as described in Example 1.
HEK-hVR1 cells were prepared and loaded as described in De Petrocellis, et al., FEBS Lett. 483:52-56 (2000). Experiments were carried out by measuring fluorescence at 25° C. […] Capsazepine (1-5 μM) was added 30 minu. Before the test compounds.
(§2) In Table 1, affinity for CB1 and CB2 receptors was measured in displacement assays carried out using rat brain or spleen membranes and [^3H]CP 55,940 or […], respectively. Potency at human VR1 was established by measuring the stimulatory activity of the compounds on the Ca^2+ intracellular concentration in HEK cells transfected with cDNA encoding the human VR1 receptor. Efficacy at VR1 was measured by expressing the effect of a maximal concentration of each compound (usually 10 μM) as percent of the maximal possible effect obtained with 4 μM ionomycin. Data are means ±SEM of at least n=3 separate determinations. *Ki was determined in the presence of PMSF.

[3] = tested on: anandamide membrane transporter (AMT); type: cell-based, rat; details: [14C]AEA uptake, RBL-2H3 cells
Description: as §1
In consideration of the potent inhibition of the AMT previously observed with arvanil and its derivatives (see Melck, ibid), the seven compounds were also tested for their inhibitory effect on [^4C] […] Thus, the results in Table 1 confirm the existence of a partial overlap between the ligand recognition properties of VR1 receptors and the AMT (14.24).

CB2 receptors = target: T3, CB2 receptors (Rattus norvegicus, UniProt Q9QZN9); test: CB2 binding, displacement of [3H]WIN55,212-2 from rat spleen membranes
T3 construct: rat spleen membranes, which contain mostly CB2 receptors; from tissue; host or cells: rat spleen membranes
T3 sequence (Q9QZN9 1-360): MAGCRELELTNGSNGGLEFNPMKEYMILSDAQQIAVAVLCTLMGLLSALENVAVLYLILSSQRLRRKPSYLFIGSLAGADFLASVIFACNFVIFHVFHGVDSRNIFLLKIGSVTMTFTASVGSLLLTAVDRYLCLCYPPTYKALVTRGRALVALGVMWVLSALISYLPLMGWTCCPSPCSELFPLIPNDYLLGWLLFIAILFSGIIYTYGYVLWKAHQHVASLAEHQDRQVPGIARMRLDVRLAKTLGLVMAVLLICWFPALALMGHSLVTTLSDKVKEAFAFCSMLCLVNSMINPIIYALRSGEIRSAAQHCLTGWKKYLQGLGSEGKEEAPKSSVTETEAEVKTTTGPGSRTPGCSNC
Description: (§3) For CB1 receptor binding, [^3H]CP-55,940 (Kd=[…]) was incubated with P2 membranes from whole rat brains as described in Compton et al., J. Pharm. Exp. Ther. 265:218-226 (1993). Displacement curves were generated by incubating drugs with 1 nM of [^3H]CP-55,940. The assays were performed in triplicate, and the results represent the combined data from three individual experiments. A separate set of experiments were conducted in which phenylmthylsulfonylfluoride (PMSF) was added at a concentration of 100 μm in order to prevent possible metabolism of the analogs. CB2 binding assays were performed as described in Melek et al., ibid. In all cases, Ki values were calculated applying the Cheng-Prusoff equation to the IC50 values (obtained by GraphPad) for the displacement of the bound radioligand by increasing concentrations of the test compounds.
as §2
The hydroxy analog is much less CB1 vs. CB2 selective in both series.

CB1 receptors [4] = target: T4, CB1 receptors (Rattus norvegicus, UniProt P20272); test: Agonist-stimulated [35S]GTPγS binding, rat hippocampal membranes; details: for Emax: read-out: GTPγS binding (Emax)
mice [5] = test: Mouse 'tetrad' of tests after i.v. administration (Example 2); details: Mus musculus, iv
CB1 receptors [6] = target: T4, CB1 receptors; test: CB1 receptor binding, displacement of [3H]CP-55,940 from rat brain P2 membranes (Example 2); parameters: from tissue; host or cells: whole rat brain membranes; details: CB1 (Ki, nM), rat brain membranes
Description: as §3, §2

FAAH = target: T5, FAAH (Rattus norvegicus, UniProt P97612); test: Fatty acid amide hydrolase assay, rat brain membranes; type: biochemical
T5 construct: membranes prepared from frozen brains of CD rats (Charles River, France); from tissue; host or cells: brain membranes of CD rats
T5 sequence (P97612 1-579): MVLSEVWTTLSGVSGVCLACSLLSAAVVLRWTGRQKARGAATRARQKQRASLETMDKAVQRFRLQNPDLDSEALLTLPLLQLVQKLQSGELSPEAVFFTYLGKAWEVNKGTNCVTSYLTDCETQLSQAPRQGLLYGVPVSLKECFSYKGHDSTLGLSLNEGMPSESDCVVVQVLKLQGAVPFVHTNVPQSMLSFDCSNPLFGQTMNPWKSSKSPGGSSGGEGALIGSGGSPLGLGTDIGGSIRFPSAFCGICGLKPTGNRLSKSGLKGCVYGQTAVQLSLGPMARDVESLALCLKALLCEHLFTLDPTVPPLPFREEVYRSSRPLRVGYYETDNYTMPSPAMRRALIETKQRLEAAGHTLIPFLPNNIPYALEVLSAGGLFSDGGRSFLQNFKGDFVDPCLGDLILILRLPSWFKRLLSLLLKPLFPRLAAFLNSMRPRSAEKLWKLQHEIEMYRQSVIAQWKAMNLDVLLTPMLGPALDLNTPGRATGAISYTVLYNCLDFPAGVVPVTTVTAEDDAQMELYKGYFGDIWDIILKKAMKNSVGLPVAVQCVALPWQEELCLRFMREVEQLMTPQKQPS
Description: Fatty acid amide hydrolase assay—The effect of compounds on the enzymatic hydrolysis of AEA was studied using membranes prepared from frozen brains of CD rats (Charles River, France), incubated with the test compounds and [^14C] AEA (9 μM) in 50 mM Tris-HCl, pH 9, for 30 min at 37° C. [^14C] Ethanolamine produced from [^14C] AEA hydrolysis was measured by scintillation counting of the aqueous phase after extraction of the incubation mixture with 2 volumes of CHCl3/CH3OH 2:1 (by vol.).
(§4) CP55940 from whole rat brain membranes.

AMT = type: cell-based, rat; details: [14C]AEA uptake, RBL-2H3 cells; read-out: AEA transport (IC50)
Description: AEA. Cells were incubated with [^14C] AEA for 5 min at 37° C., in the presence or absence of varying concentrations of the inhibitors. Residual [^14C] AEA in the incubation media after extraction with CHCl3/CH3OH 2:1 (by vol.), determined by scintillation counting of the lyophilized organic phase, was used as a measure of the AEA that was taken up by cells.
as §4

human VR1 receptor [7] = target: T2, human VR1 receptor; test: Cytosolic calcium concentration assay in HEK-hVR1 cells (Example 3); details: for Emax: read-out: hVR1 efficacy (maximal effect, in parentheses)
mice [8] = test: Mouse tetrad of behavioral tests, i.v. (Example 3); type: in vivo; details: i.v.; for R.I. ED50 / Rectal temp. ED50 / Spontan. activity ED50 / Tail Flick ED50: mean (range)
Description: The analogs were administered to mice by tail-vein injection and evaluated for their ability to produce hypomotility, hypothermia, and antinociception. These pharmacological measures were determined in the same mouse at a time when maximal activity was present. […] A 10-sec maximum latency was used. Antinociception was expressed as % MPE as described below.
Data Analysis—For production of hypomotility and hypothermia, the data were expressed as a percentage of control activity and change in temperature, respectively. Antinociception was calculated according to the following equation.
% MPE=−((test latency-control latency)/(10s-control latency))×100
At least six animals were treated with each dose-response relationships could be determined for each analog. ED50 values were determined from least-squares unweighted linear regression analysis of log dose-response plots.
The ED50 (milligrams per kilogram, i.v.) does for inhibition of sector crossings (spontaneous activity) in an open field, antinociception (delay in seconds in the tail-flick response), decrease of rectal temperature in degrees Celsius, and induction of time spent in immobility on a ring are shown. Data are means (and ranges) of N>six animals.

CB1 receptors [9] = target: T4, CB1 receptors; test: CB1 receptor binding, [3H]CP55940, whole rat brain membranes (Example 3); details: read-out: CB1 affinity Ki

T2 sequence (Q8NER1 whole entry): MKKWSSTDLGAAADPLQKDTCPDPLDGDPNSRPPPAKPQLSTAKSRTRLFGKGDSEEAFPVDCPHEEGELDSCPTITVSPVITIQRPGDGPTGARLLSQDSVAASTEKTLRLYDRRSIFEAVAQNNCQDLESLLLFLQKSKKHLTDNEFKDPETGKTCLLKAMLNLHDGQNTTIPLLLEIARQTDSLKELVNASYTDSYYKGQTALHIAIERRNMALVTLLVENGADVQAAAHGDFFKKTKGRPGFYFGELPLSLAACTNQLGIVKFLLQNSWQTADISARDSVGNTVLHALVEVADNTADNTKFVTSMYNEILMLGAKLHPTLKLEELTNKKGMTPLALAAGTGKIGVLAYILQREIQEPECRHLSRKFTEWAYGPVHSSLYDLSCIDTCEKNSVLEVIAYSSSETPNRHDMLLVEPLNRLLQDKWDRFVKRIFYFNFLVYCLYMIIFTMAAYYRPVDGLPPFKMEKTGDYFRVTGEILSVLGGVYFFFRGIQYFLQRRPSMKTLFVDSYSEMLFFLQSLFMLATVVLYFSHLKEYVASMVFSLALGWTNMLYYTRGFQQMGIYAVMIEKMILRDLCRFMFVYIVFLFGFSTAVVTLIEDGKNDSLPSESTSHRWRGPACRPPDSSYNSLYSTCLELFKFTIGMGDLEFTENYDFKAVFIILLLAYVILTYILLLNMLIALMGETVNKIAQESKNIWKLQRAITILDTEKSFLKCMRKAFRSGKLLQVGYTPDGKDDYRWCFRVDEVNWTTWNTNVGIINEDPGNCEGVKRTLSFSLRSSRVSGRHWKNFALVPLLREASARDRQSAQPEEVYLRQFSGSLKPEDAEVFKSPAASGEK
T4 sequence (P20272 whole entry): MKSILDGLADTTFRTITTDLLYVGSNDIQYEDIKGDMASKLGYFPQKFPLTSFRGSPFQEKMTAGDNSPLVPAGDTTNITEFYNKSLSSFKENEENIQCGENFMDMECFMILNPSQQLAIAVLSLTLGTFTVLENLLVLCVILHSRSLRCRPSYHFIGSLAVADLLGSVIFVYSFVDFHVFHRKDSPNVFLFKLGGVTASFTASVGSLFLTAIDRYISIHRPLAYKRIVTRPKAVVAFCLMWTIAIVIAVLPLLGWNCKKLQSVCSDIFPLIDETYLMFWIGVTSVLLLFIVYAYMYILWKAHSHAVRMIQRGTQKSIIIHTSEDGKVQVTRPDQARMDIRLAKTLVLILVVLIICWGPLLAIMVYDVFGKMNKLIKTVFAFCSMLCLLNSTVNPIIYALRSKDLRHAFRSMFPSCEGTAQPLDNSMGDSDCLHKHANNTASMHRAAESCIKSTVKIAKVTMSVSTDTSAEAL

Row | Compound | Emax (CB1 receptors [4]) [%] | IC50 (FAAH) [nM] | IC50 (AMT) [nM] | EC50 (human VR1 receptor [7]) [nM] | Emax (human VR1 receptor [7]) [%] | Average ED50 (mice [8]) [milligrams per kilogram] | R.I. ED50 (mice [8]) | Rectal temp. ED50 (mice [8]) | Spontan. activity ED50 (mice [8]) | Tail Flick ED50 (mice [8]) | Ki (CB1 receptors [9]) [nM] | also measured
1 | COc1cc(CNC(=O)CCC/C=C\C/C=C\C/C=C\C/C=C\C(C)(C)CCCCBr)ccc1O [Compound O-1861, 20-Bromo-16,16-dimethyl-eicosa-5,8,11,14-all-cis-tetraenoic acid (4-hydroxy-3-methoxy-benzyl) amide] | 32 | – | – | – | – | – | – | – | – | – | – | IC50 [1]: > 50000 nM; EC50 (human VR1 receptor [2]; VR1 (EC50, nM), Ca2+ in HEK cells with human VR1): 30 ± 0.2 nM; VR1 efficacy (human VR1 receptor [2]; maximal concentration (usually 10 μM), percent of effect of 4 μM ionomycin): 74.0 ± 4.5%; IC50 [3]: 13500 nM; Ki (CB2 receptors): > 10000 nM; EC50 (CB1 receptors [4]): 70 nM; ED50 (mice [5]; read-out: Average ED50 for the four effects): 0.068 mg/kg; ED50 (mice [5]; read-out: R.I. (relative immobility) ED50): 0.055 mg/kg; ED50 (mice [5]; read-out: R.T. (rectal temperature) ED50): 0.053 mg/kg; ED50 (mice [5]; read-out: S.A. (spontaneous activity) ED50): 0.06 mg/kg; ED50 (mice [5]; read-out: T.F. (tail-flick) ED50): 0.104 mg/kg; Ki (CB1 receptors [6]; determined in the presence of PMSF, [3H]CP 55,940, PMSF 100 μM): 24.3 ± 2.6 nM; Ki (CB1 receptors [6]; [3H]CP 55,940, without PMSF): 32.6 ± 1.2 nM
2 | CCCCC/C=C\C/C=C\C/C=C\C/C=C\CCCC(=O)NCc1cccc(OC)c1 [Compound O-1986] | 0 | 18200 ± 2800 | 27300 ± 3500 | 63 ± 10.1 | 68 | 5.80 | 6.13 (4.79-7.83) milligrams per kilogram | 6.15 (3.22-11.73) milligrams per kilogram | 4.74 (3.17-7.09) milligrams per kilogram | 6.15 (4.63-8.16) milligrams per kilogram | 484 ± 17 | fold less potent than arvanil at hVR1 (human VR1 receptor [7]): more than 100 fold
3 | CCCCC/C=C\C/C=C\C/C=C\C/C=C\CCCNC(=O)NCc1ccc(O)c(OC)c1 [Compound O-1987] | 0 | 2000 ± 400 | 19300 ± 3300 | 0.7 ± 0.2 | 80.6 | 0.09 | 0.09 (0.06-0.12) milligrams per kilogram | 0.08 (0.03-0.20) milligrams per kilogram | 0.06 (0.04-0.08) milligrams per kilogram | 0.12 (0.08-0.17) milligrams per kilogram | 1720 ± 200 | –
